From patent publication US9309410B2, “Colorant compounds” (Xerox Corporation, priority 2013, dated 2016)

Assay: Solubility testing in polyethylene wax (POLYWAX 655)
Assay type: physicochemical
Conditions: 1 g Solvent Black 3 or 2 g distearyl derivative in 50 g POLYWAX 655; 120° C. oil bath, stirred 3 h, then 1 h without stirring
Text: Solvent Black 3 (NEPTUN BLACK X60, BASF), of the formula
[drawing 36] molecular weight 456, and the distearyl derivative, a compound as disclosed herein, of the formula
[drawing 37] molecular weight 892, were compared for solubility in polyethylene wax, a predominant component in phase change inks. 1 g of the Solvent Black 3 and 2 g of the distearyl derivative (because its molecular weight was about twice that of Solvent Black 3) were each dissolved in 50 g portions of POLYWAX 655 (Baker Petrolite) in 100 mL beakers equipped with magnetic stir bars. The solutions were placed in 120° C. oil baths and allowed to stir for 3 h, followed by cessation of stirring for 1 h, after which the solutions were poured into aluminum tins.

| Compound | solubility in polyethylene wax (solids on the bottom of the beaker) |
| --- | --- |
| CC1(C)Nc2cccc3c(/N=N/c4ccc(/N=N/c5ccccc5)c5ccccc45)ccc(c23)N1 [Solvent Black 3] | a substantial amount of the Solvent Black 3 appeared on the bottom of its beaker |
| CCCCCCCCCCCCCCCCCC1(CCCCCCCCCCCCCCCCC)Nc2cccc3c(/N=N/c4ccc(/N=N/c5ccccc5)c5ccccc45)ccc(c23)N1 [distearyl derivative] | almost no solids appeared on the bottom of the beaker |
